Test results taken from US20240109972A1, “ANTIBODY AND TAXANE COMBINATION THERAPY” (Genmab A/S, priority 2020, published 2024).

Test system: metastatic NSCLC
Experiment: GEN1046 in combination with docetaxel in metastatic NSCLC subjects, efficacy (RECIST v1.1)
Type: in vivo, human
Conditions: six subjects dosed with GEN1046 and 75 mg/m^2 Docetaxel
Description: Docetaxel was administered at a dose of 55 mg/m^2 or 75 mg/m^2 depending on the number of prior Dose Limiting Toxicities observed. The maximum tested dose of docetaxel was be 75 mg/m^2.
The following inclusion criteria applied to the combination arm (NSCLC): GEN1046 in combination with docetaxel: • NSCLC subjects of any histology may be enrolled. Subjects with a histological or cytological diagnosis of non-squamous NSCLC must not have an EGFR-sensitizing mutation and/or ALK translocation/ROS1 rearrangement. EGFR sensitizing mutations are those mutations that are amenable to treatment with an approved TKI. Documentation of EGFR and ALK status should be available per local assessment.
In one of the six patients the first post-baseline scan was indicative of response according to RECIST Criteria v1.1.

GEN1046: PD-L1×4-1BB bispecific antibody: PD-L1-547-FEAL combined with CD137-009-HC7LC2-FEAR (SEQ ID NOs: 1, 5, 21, 19; 8, 12, 22, 20)
Patients whose first post-baseline scan was indicative of response (RECIST v1.1): one
